In the oligonucleotide strings, read from the 5' end, every base follows the letter of its sugar. An asterisk marks phosphorothioate; unmarked linkages are phosphodiester. Other units and linkages are bracketed, terminal groups are in braces. A string of capitals states the bases alone. e = 2'-O-(2-methoxyethyl) (MOE); [5mC] = 5-methylcytosine; d = 2'-deoxy (DNA)

Here are results for three substances from US20120083522A1, “MODULATION OF INFLAMMATORY RESPONSES BY FACTOR XI” (Isis Pharmaceuitcals, inc., priority 2009, published 2012).

Data set [1] is described as follows: Tolerability in CD1 mice: organ weight (Example 17). In kind it is in vivo. Particulars: 50 mg/kg s.c. twice a week, 2 weeks, vs PBS control, normalized to body weight. The protocol: Three days after the last dose was administered to all groups, the mice were sacrificed.
Data set [2] in a line: Tolerability in CD1 mice: body and organ weight (Example 25). As to conditions: 50 mg/kg s.c. twice per week for 6 weeks. In kind it is in vivo.
The subject of data set [3] is Factor XI protein. Briefly: Cynomolgus monkeys: plasma Factor XI protein ELISA (Example 29). The data set is classed as in vivo. As for the experimental part: Groups, each consisting of two male and three female monkeys, were injected subcutaneously with ISIS 416838, ISIS 416850, ISIS 416858, ISIS 416864, or ISIS 417002 in escalating doses. Antisense oligonucleotide was administered to the monkeys at 5 mg/kg three times per a week for week 1; 5 mg/kg twice per week for weeks 2 and 3; 10 mg/kg three times per week for week 4; 10 mg/kg twice per week for weeks 5 and 6; 25 mg/kg three times per week for week 7; and 25 mg/kg twice per week for weeks 8, 9, 10, 11, and 12. One control group, consisting of two male and three female monkeys, was injected subcutaneously with PBS according to the same dosing regimen. An additional experimental group, consisting of two male and three female monkeys, was injected subcutaneously with ISIS 416850 in a chronic, lower dose regimen. Antisense oligonucleotide was administered to the monkeys at 5 mg/kg three times per week for week 1; 5 mg/kg twice per week for week 2 and 3; 10 mg/kg three times per week for week 4; and 10 mg/kg twice per week for weeks 5 to 12. Body weights were measured weekly. Blood samples were collected 14 days and 5 days before the start of treatment and subsequently once per week for Factor XI protein activity analysis in plasma and measurement of various hematologic factors. On day 85, the monkeys were euthanized by exsanguination while under deep anesthesia, and organs harvested for further analysis.
Plasma samples from all monkey groups taken on different days were analyzed by a sandwich-style ELISA assay (Affinity Biologicals Inc.) using an affinity-purified polyclonal anti-Factor XI antibody as the capture antibody and a peroxidase-conjugated polyclonal anti-Factor XI antibody as the detecting antibody. Monkey plasma was diluted 1:50 for the assay. Peroxidase activity was expressed by incubation with the substrate o-phenylenediamine. The color produced was quantified using a microplate reader at 490 nm and was considered to be proportional to the concentration of Factor XI in the samples.
The results are presented in Table 122, expressed as percentage reduction relative to that of the PBS control.
For orientation: ELISA stands for enzyme-linked immunosorbent assay.

For data set [4], the system named is DSS-induced colitis model. Briefly: Colitis Study A: DSS-induced colitis, body weight and colon length (Example 12). As to conditions: for colon length (in words): FIG. 7C. In kind it is in vivo, Swiss Webb mice. As for the experimental part:
The effect of antisense oligonucleotide inhibition of Factor XI and its role in ameliorating colitis was evaluated in a dextran sulfate sodium (DSS)-induced colitis model. Administration of DSS to animals is a well known method to induce […] and has been previously described by Okayasu et al. (Gastroenterology, 1990, 98:694-702), Cooper et al. (Lab Invest, 1993, 69:238-249) and Dieleman et al. (Clin Exp Immunol, 1998, 114:385-391).
In groups of 8 Swiss Webb mice, 20 mg/kg of ISIS 404071 or ISIS 403102 were injected subcutaneously twice a week for 3 weeks. Two control groups of 8 mice each were injected with PBS twice a week for 3 weeks. After the oligonucleotide treatments, 4% DSS in water was administered ad libitum for 6 days to the experimental groups and one PBS control group.
Mice in all groups were weighed at day 0. Mice were sacrificed at the end of the study on day 7 after DSS was administered and their body weights and colon lengths were measured. Results are presented in Table 24 (expressed as a percentage of the PBS control) and FIG. 7.
Colon length was assessed in the DSS-induced colitis mice.

Data set [5] concerns DSS-induced colitis model. In words: Colitis Study C: stool softness/diarrhea. As to conditions: after seven days. The data set is classed as in vivo, mice. As for the experimental part: A third study on colitis using Factor XI oligonucleotide (ISIS 404071, SEQ ID NO: 11) was conducted. The study was performed essentially as described earlier in this example. A stool softness/diarrhea study was conducted.

For data set [6], the system named is OVA/alum-induced asthma model. In words: OVA-induced asthma model: mucus production (Example 13). The data set is classed as in vivo, BALB/c mice. The protocol: The mice were divided into four treatment groups of 5 mice each. One group received subcutaneous injections of ISIS 404071 at a dose of 50 mg/kg twice a week for 4 weeks. One group of mice received subcutaneous injections of control oligonucleotide, ISIS 421208, which is a mismatch oligonucleotide sequence of ISIS 404071, at a dose of 50 mg/kg twice a week for 4 weeks. Two groups of mice received subcutaneous injections of PBS twice a week for 4 weeks. One PBS group remained untreated and served as the control group. The second PBS group and both the oligonucleotide treated groups were injected with OVA/alum on days 0 and 14 and nebulized with OVA in PBS on days 24, 25, and 26. The first OVA application served to sensitize the mice against OVA while the second was a challenge application to provoke an asthmatic reaction. Two days following the final dose, the mice were euthanized, bronchial lavage (BAL) was collected and analyses done.
Lung sections were stained with periodic acid […] (PAS) base stain that stains mucus, which is produced during asthma attacks (Rogers, D. F. Curr. Opin Pharmacol. 2004. 4: 241-250). The number of airways containing mucus as a percentage of the total airways in the lungs was evaluated.

Where [7] appears, read: DSS-induced colitis, day 7, 20 mg/kg s.c. twice a week for 3 weeks, expressed as a percentage of the PBS control.

On to “416850 (antisense TGCACAGTTTCTGGCAGGCC; 5-10-5 gapmer, wing sugar chemistry not given here, further chemistry not given here) [compound 416850]”, for which the “Percent change in kidney weight” value in data set [1] was −10%.

Consider “ISIS 416850: gapmer of Table 8 (antisense eT*eG*e[5mC]*eA*e[5mC]*dA*dG*dT*dT*dT*d[5mC]*dT*dG*dG*d[5mC]*eA*eG*eG*e[5mC]*e[5mC])”, for which, in data set [2], the “Body weight (increase over PBS control weight before start of treatment)” value stood at 11 g. In addition, the “Kidney weight as percentage of body weight” value in data set [2] (end of study) stood at 1.5%. The “Liver weight as percentage of body weight” value in data set [2] (end of study) turned out to be 6%. Besides, the “Spleen weight as percentage of body weight” value in data set [2] (end of study) was determined as 0.4%. Besides, in data set [3] (Example 29), the “Factor XI protein levels (in words)” value is “time-dependent decrease in protein levels”. In addition, the “Inhibition of Factor XI protein relative to the PBS control” value in data set [3] (chronic, lower dose regimen (*) 5 then 10 mg/kg s.c., day 8) is on record as 6%; in data set [3] (chronic, lower dose regimen (*) 5 then 10 mg/kg s.c., day 15) it was 13%; in data set [3] (chronic, lower dose regimen (*) 5 then 10 mg/kg s.c., day 22), 12%; in data set [3] (chronic, lower dose regimen (*) 5 then 10 mg/kg s.c., day 29), 20%; in data set [3] (chronic, lower dose regimen (*) 5 then 10 mg/kg s.c., day 36), 22%; in data set [3] (chronic, lower dose regimen (*) 5 then 10 mg/kg s.c., day 43) it was 24%. For the same substance, the “Inhibition of Factor XI protein relative to the PBS control” value in data set [3] (chronic, lower dose regimen (*) 5 then 10 mg/kg s.c., day 50) is 30%; in data set [3] (chronic, lower dose regimen (*) 5 then 10 mg/kg s.c., day 57) it was 34%; in data set [3] (chronic, lower dose regimen (*) 5 then 10 mg/kg s.c., day 64), 37%; in data set [3] (chronic, lower dose regimen (*) 5 then 10 mg/kg s.c., day 71), 41%; in data set [3] (chronic, lower dose regimen (*) 5 then 10 mg/kg s.c., day 78) it was 42%; in data set [3] (chronic, lower dose regimen (*) 5 then 10 mg/kg s.c., day 85) it was 34%. Besides, the “Inhibition of Factor XI protein relative to the PBS control” value in data set [3] (chronic, lower dose regimen (*) 5 then 10 mg/kg s.c., day −5 (before treatment)) is recorded as 1%; in data set [3] (chronic, lower dose regimen (*) 5 then 10 mg/kg s.c., day −14 (before treatment)) it was 0%; in data set [3] (escalating doses 5, 10, 25 mg/kg s.c., day 8) it was 8%; in data set [3] (escalating doses 5, 10, 25 mg/kg s.c., day 15) it was 4%; in data set [3] (escalating doses 5, 10, 25 mg/kg s.c., day 22), 11%; in data set [3] (escalating doses 5, 10, 25 mg/kg s.c., day 29), 15%. Further, the “Inhibition of Factor XI protein relative to the PBS control” value turned out to be 17% in data set [3] (escalating doses 5, 10, 25 mg/kg s.c., day 36); 23% in data set [3] (escalating doses 5, 10, 25 mg/kg s.c., day 43); 42% in data set [3] (escalating doses 5, 10, 25 mg/kg s.c., day 50); 49% in data set [3] (escalating doses 5, 10, 25 mg/kg s.c., day 57); 55% in data set [3] (escalating doses 5, 10, 25 mg/kg s.c., day 64); 57% in data set [3] (escalating doses 5, 10, 25 mg/kg s.c., day 71). The “Inhibition of Factor XI protein relative to the PBS control” value is recorded as 63% in data set [3] (escalating doses 5, 10, 25 mg/kg s.c., day 78); 64% in data set [3] (escalating doses 5, 10, 25 mg/kg s.c., day 85); 0% in data set [3] (escalating doses 5, 10, 25 mg/kg s.c., day −5 (before treatment)); 0% in data set [3] (escalating doses 5, 10, 25 mg/kg s.c., day −14 (before treatment)).

“TGGTAATCCACTTTCAGAGG (eT*eG*eG*eT*eA*dA*dT*d[5mC]*d[5mC]*dA*d[5mC]*dT*dT*dT*d[5mC]*eA*eG*eA*eG*eG) [ISIS 404071, 5-10-5 MOE gapmer targeting murine Factor XI, target start site 869]”: the “body weight (in words)” value in data set [4] (Colitis Study A, FIG. 7A/7B) is on record as “did not have any significant change in body weight”. Also, the “colon length (in words)” value in data set [4] (Colitis Study A, listed as Factor XI ASO) is “had no significant change in colon length”. The “colon length (in words)” value in data set [4] (Colitis Study A, listed as Factor XI oligonucleotide) was “decreased the amount of colon shortening”. In data set [4] (setting [7]), the Body weight change is −2% and the Colon length change was −13%. In addition, in data set [5], the “stool softness/diarrhea (in words)” value is listed as “normal to soft stool but no diarrhea”. In addition, the “mucus production in the lungs (in words)” value in data set [6] was “decreased mucus production in the lungs”. In addition, in data set [6] (BALB/c mice, 50 mg/kg s.c. twice a week for 4 weeks, PAS stain of lung sections), the “Mucus production, % airways containing mucus” value was 34 % airways.
